Measured values taken from PubChem BioAssay (NCI).
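Step 1: Grow cells in 96-well plates. Step 2: Expose to compound for 48 hours at 5 concentrations. Step 3: Interpolate endpoints linearly; if unreached, use highest concentration. Here, GI50 denotes the concentration required for 50% inhibition of growth. Definition used: TGI = concentration required for complete inhibition of growth.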

Assays:
Assay in all cases: NCI-60 cell line screen, 48 h
786-0 renal = test system: 786-0 renal
A498 renal = test system: A498 renal
A549 NSCLC = test system: A549 NSCLC
ACHN renal = test system: ACHN renal
BT-549 breast = test system: BT-549 breast
CAKI-1 renal = test system: CAKI-1 renal
CCRF-CEM leukemia = test system: CCRF-CEM leukemia
COLO 205 colon = test system: COLO 205 colon
DU-145 prostate = test system: DU-145 prostate
EKVX NSCLC = test system: EKVX NSCLC
HCC-2998 colon = test system: HCC-2998 colon
HCT-116 colon = test system: HCT-116 colon
HCT-15 colon = test system: HCT-15 colon
HL-60(TB) leukemia = test system: HL-60(TB) leukemia
HOP-62 NSCLC = test system: HOP-62 NSCLC
HOP-92 NSCLC = test system: HOP-92 NSCLC
HS 578T breast = test system: HS 578T breast
HT29 colon = test system: HT29 colon
IGROV1 ovarian = test system: IGROV1 ovarian
K-562 leukemia = test system: K-562 leukemia
KM12 colon = test system: KM12 colon
LOX IMVI melanoma = test system: LOX IMVI melanoma
M14 melanoma = test system: M14 melanoma
MALME-3M melanoma = test system: MALME-3M melanoma
MCF7 breast = test system: MCF7 breast
MDA-MB-231 breast = test system: MDA-MB-231 breast
MDA-MB-435 = test system: MDA-MB-435
MOLT-4 leukemia = test system: MOLT-4 leukemia
NCI-H226 lung = test system: NCI-H226 lung
NCI-H23 lung = test system: NCI-H23 lung
NCI-H460 lung = test system: NCI-H460 lung
NCI-H522 lung = test system: NCI-H522 lung
NCI/ADR-RES ovarian = test system: NCI/ADR-RES ovarian
OVCAR-3 ovarian = test system: OVCAR-3 ovarian
OVCAR-4 ovarian = test system: OVCAR-4 ovarian
OVCAR-5 ovarian = test system: OVCAR-5 ovarian
OVCAR-8 ovarian = test system: OVCAR-8 ovarian
PC-3 prostate = test system: PC-3 prostate
RPMI-8226 leukemia = test system: RPMI-8226 leukemia
RXF 393 renal = test system: RXF 393 renal
SF-268 CNS = test system: SF-268 CNS
SF-295 CNS = test system: SF-295 CNS
SF-539 CNS = test system: SF-539 CNS
SK-MEL-2 melanoma = test system: SK-MEL-2 melanoma
SK-MEL-28 melanoma = test system: SK-MEL-28 melanoma
SK-MEL-5 melanoma = test system: SK-MEL-5 melanoma
SK-OV-3 ovarian = test system: SK-OV-3 ovarian
SN12C renal = test system: SN12C renal
SNB-19 CNS = test system: SNB-19 CNS
SNB-75 CNS = test system: SNB-75 CNS
SR leukemia = test system: SR leukemia
SW-620 colon = test system: SW-620 colon
T-47D breast = test system: T-47D breast
TK-10 renal = test system: TK-10 renal
U251 CNS = test system: U251 CNS
UACC-257 melanoma = test system: UACC-257 melanoma
UACC-62 melanoma = test system: UACC-62 melanoma
UO-31 renal = test system: UO-31 renal

## Oc1ccccc1N=Cc1c(O)ccc2ccccc12
786-0 renal
  GI50: 19.5 µM
  TGI: 68.3 µM
A498 renal
  GI50: 5.61 µM
  TGI: 23.6 µM
A549 NSCLC
  GI50: 24.6 µM
  TGI: 91.9 µM
ACHN renal
  GI50: 4.96 µM
  TGI: 42.6 µM
BT-549 breast
  GI50: 5.88 µM
  TGI: 30 µM
CAKI-1 renal
  GI50: 5.61 µM
  TGI: 26.6 µM
CCRF-CEM leukemia
  GI50: 3.2 µM
  TGI: 47.1 µM
COLO 205 colon
  GI50: 30.7 µM
  TGI: > 100 µM
DU-145 prostate
  GI50: 19.5 µM
  TGI: > 100 µM
EKVX NSCLC
  GI50: 15.8 µM
  TGI: 57.8 µM
HCC-2998 colon
  GI50: 16.5 µM
  TGI: 72.4 µM
HCT-116 colon
  GI50: 13 µM
  TGI: 46 µM
HCT-15 colon
  GI50: 15.3 µM
  TGI: > 100 µM
HL-60(TB) leukemia
  GI50: 4.95 µM
  TGI: 33.3 µM
HOP-62 NSCLC
  GI50: 17.5 µM
  TGI: 97.6 µM
HOP-92 NSCLC
  GI50: 3.17 µM
  TGI: 18.5 µM
HS 578T breast
  GI50: 15 µM
  TGI: > 100 µM
HT29 colon
  GI50: 16.4 µM
  TGI: 40.1 µM
IGROV1 ovarian
  GI50: 4.84 µM
  TGI: 26.1 µM
K-562 leukemia
  GI50: 15.3 µM
  TGI: > 100 µM
KM12 colon
  GI50: 16.5 µM
  TGI: > 100 µM
LOX IMVI melanoma
  GI50: 10.6 µM
  TGI: 45 µM
M14 melanoma
  GI50: 13.4 µM
  TGI: 40.2 µM
MALME-3M melanoma
  GI50: 5 µM
  TGI: 27 µM
MCF7 breast
  GI50: 8.35 µM
  TGI: 52.3 µM
MDA-MB-231 breast
  GI50: 5.75 µM
  TGI: 27.5 µM
MDA-MB-435
  GI50: 17 µM
  TGI: 52.6 µM
MOLT-4 leukemia
  GI50: 10.2 µM
  TGI: 80.3 µM
NCI-H226 lung
  GI50: 11.5 µM
  TGI: 61.7 µM
NCI-H23 lung
  GI50: 13.8 µM
  TGI: 49.8 µM
NCI-H460 lung
  GI50: 10.7 µM
  TGI: 47 µM
NCI-H522 lung
  GI50: 6.73 µM
  TGI: 39.3 µM
NCI/ADR-RES ovarian
  GI50: 5.58 µM
  TGI: 40.8 µM
OVCAR-3 ovarian
  GI50: 11.9 µM
  TGI: 46.1 µM
OVCAR-4 ovarian
  GI50: 13.4 µM
  TGI: 75.4 µM
OVCAR-5 ovarian
  GI50: 24.6 µM
  TGI: 62.9 µM
OVCAR-8 ovarian
  GI50: 18.1 µM
  TGI: 72 µM
PC-3 prostate
  GI50: 7.28 µM
  TGI: 66.2 µM
RPMI-8226 leukemia
  GI50: 2.77 µM
  TGI: 37 µM
RXF 393 renal
  GI50: 10.6 µM
  TGI: 34.6 µM
SF-268 CNS
  GI50: 15.8 µM
  TGI: 76.8 µM
SF-295 CNS
  GI50: 11.7 µM
  TGI: 40.4 µM
SF-539 CNS
  GI50: 14.2 µM
  TGI: 39 µM
SK-MEL-2 melanoma
  GI50: 13.3 µM
  TGI: 40.5 µM
SK-MEL-28 melanoma
  GI50: 22.4 µM
  TGI: 84.5 µM
SK-MEL-5 melanoma
  GI50: 9.99 µM
  TGI: 34.7 µM
SK-OV-3 ovarian
  GI50: 15.9 µM
  TGI: 54.7 µM
SN12C renal
  GI50: 15.4 µM
  TGI: 71.9 µM
SNB-19 CNS
  GI50: 21.8 µM
  TGI: > 100 µM
SNB-75 CNS
  GI50: 10.4 µM
  TGI: 62.5 µM
SR leukemia
  GI50: 15.3 µM
  TGI: 47.7 µM
SW-620 colon
  GI50: 17.3 µM
  TGI: > 100 µM
T-47D breast
  GI50: 7.5 µM
  TGI: 54.9 µM
TK-10 renal
  GI50: 14.2 µM
  TGI: 66.2 µM
U251 CNS
  GI50: 19.8 µM
  TGI: 67.9 µM
UACC-257 melanoma
  GI50: 15.2 µM
  TGI: 56.6 µM
UACC-62 melanoma
  GI50: 9.78 µM
  TGI: 38.5 µM
UO-31 renal
  GI50: 3.59 µM
  TGI: 28.3 µM
